Earlier results, collected in patent publication US20230071314A1, “POLYMERIC COMPOSITIONS FOR SUSTAINED DELIVERY OF VMAT2 INHIBITORS” (Foresee Pharmaceuticals Co., Ltd., priority 2021, published 2023).
pKi: −log10 of the molar value. Read-outs that look alike come from different tables or passages of the source.

Experiments:
dopamine D2 = dopamine D2 (Homo sapiens, UniProt P14416); conditions: Harriott et al. 2018; read-out: off-target binding affinity to dopamine D2
[1] = biological target: serotonin 5-HT7 receptors (Homo sapiens, UniProt P34969); conditions: Harriott et al. 2018; read-out: off-target binding affinity to serotonin 5-HT7 receptors
serotonin 5-HT7 receptors, sequence (P34969 whole entry): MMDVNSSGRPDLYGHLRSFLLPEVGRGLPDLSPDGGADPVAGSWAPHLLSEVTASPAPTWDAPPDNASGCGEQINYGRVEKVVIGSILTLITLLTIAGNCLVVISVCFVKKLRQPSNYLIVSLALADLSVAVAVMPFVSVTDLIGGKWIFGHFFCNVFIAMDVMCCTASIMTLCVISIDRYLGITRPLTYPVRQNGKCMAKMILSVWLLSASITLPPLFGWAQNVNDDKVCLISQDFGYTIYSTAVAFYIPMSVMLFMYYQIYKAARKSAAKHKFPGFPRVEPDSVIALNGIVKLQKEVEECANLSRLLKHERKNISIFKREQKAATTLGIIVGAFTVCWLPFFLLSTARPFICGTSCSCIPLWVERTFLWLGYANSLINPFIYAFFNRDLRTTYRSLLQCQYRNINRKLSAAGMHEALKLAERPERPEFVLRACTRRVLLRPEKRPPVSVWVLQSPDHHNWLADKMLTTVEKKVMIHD

dopamine D2, sequence (P14416 1-414 isoform P14416-2): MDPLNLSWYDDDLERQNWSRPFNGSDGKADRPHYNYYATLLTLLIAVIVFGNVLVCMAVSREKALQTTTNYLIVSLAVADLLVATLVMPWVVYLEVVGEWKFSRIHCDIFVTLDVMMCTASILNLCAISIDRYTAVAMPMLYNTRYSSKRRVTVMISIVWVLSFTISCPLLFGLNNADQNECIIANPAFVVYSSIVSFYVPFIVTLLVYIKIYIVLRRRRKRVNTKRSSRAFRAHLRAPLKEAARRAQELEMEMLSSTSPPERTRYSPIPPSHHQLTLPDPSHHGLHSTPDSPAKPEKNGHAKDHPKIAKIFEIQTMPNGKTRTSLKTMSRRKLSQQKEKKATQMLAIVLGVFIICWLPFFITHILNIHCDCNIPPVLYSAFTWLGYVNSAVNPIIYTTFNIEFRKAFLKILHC

pKi (dopamine D2) | pKi [1] | Molecule | increase of cumulative release (Ivermectin loading increased from 1% to 2%) | increase of cumulative release (Ivermectin loading increased from 1% to 4%)
7.28 | 8.23 | COc1cc2c(cc1OC)C1CC(O)C(CC(C)C)CN1CC2 [R,S,S-DHTBZ ((−)-β), [−]-β-dihydrotetrabenazine] | – | –
6.74 | 7.15 | COc1cc2c(cc1OC)C1CC(O)C(CC(C)C)CN1CC2 [S,S,S-DHTBZ ((−)-α), [−]-α-dihydrotetrabenazine] | – | –
– | – | Ivermectin | 2.4-2.9 times | 3.1-3.7 times
